“Also recorded” adds a separate entry of the source. Residues, ends and D or L forms follow the SMILES beside them.
Experiments:
[1] = test system: CD4^+ T cell activation, HLA-DRB1*04:04 transgenic mice splenocytes; format: cell-based; settings: acute response to rVACV-CHIKV, listed as CHIKV E2_133-145
HLA-B*07:02 = target: T1, HLA-B*07:02 (Homo sapiens, UniProt P01889); test: cell-based
T1 construct: expressed in transfected cells; host or cells: RMA-S (TAP-deficient) cells transfected with HLA-B*07:02

HLA-C*07:02 = HLA-C*07:02 (Homo sapiens, UniProt P10321)

PPVIGREKFHSRP
recognition of peptide-pulsed cells by spleen cells [1]: specifically recognized; also recorded: presented and recognized as an epitope bound to DRB1*04:04

CC[C@H](C)[C@H](NC(=O)[C@@H](NC(=O)[C@@H]1CCCN1C(=O)[C@H](CCCNC(=N)N)NC(=O)[C@@H]1CCCN1C(=O)[C@@H](NC(=O)[C@H](Cc1c[nH]c2ccccc12)NC(=O)[C@@H]1CCCN1C(=O)[C@@H](N)CCCNC(=N)N)[C@@H](C)O)[C@@H](C)O)C(=O)O (H-RPWTPRPTI-OH)
EC50 (HLA-B*07:02): 6 ± 6 µM

YEHVTVIPNTVGVPYK
detection in HLA-bound peptide pool (HLA-C*07:02): most likely a HLA-C*07:02 ligand
